Reference: patent publication US20250206708A1, “AN OXAZIRIDINE PLATFORM FOR TARGETING FUNCTIONAL ALLOSTERIC METHIONINE SITES” (Novartis AG, priority 2022, published 2025)

Experiments:
CDK1 [1] = target: T1, CDK1 (Homo sapiens, UniProt P06493); assay: Shotgun proteomics (MS/MS) modification of purified CDK1; format: binding; settings: shotgun proteomics on purified protein
CDK4 = assay: Western blot of Rb phosphorylation (S780, S807/811) as cellular CDK4 activity; format: cell-based, human; settings: serum-synchronized MCF-7 cells, dose of 500 μM
Procedure: Cells were synchronized to G1 via serum starvation. Cells were plated at 50% confluency and allowed to adhere overnight in serum-containing media. The next morning, the cells were gently washed twice with HBSS, and serum-free media was added. Cells were allowed to incubate an additional […], […]. Final cell confluency should remain below 75% for optimal results.
Cells were seeded in full media at 8 e5 cells/well in a 6-well plate. They were then serum-synchronized, as outlined in Example 15, and treated with compound as described previously. Cells were monitored by eye for cell death and harvested once high-dose cells were round but not detached. Cells were transferred to ice and washed twice gently with 1 mL ice-cold PBS. 10 mL of lysis buffer was prepared by dissolved a protease-inhibitor table (Pierce; cat no. A32953) and a phosphatase-inhibitor tablet (Roche; cat no. 4906845001) in 10 mL PBS (1% Triton X-100). Cells were scraped to harvest, transferred to 1.5 mL Eppendorf tubes, and incubated at 4° C. for 30 min on a rotator. Samples were spun at 5000×g for 10 min to clarify lysate. Supernatant was transferred to a new tube and protein concentration quantified via BCA assay (Pierce; cat no. 23225). Samples were normalized to the lowest concentration using chilled lysis buffer. […]

CDK6 = CDK6 (Homo sapiens, UniProt Q00534); assay: Gel-based ABPP, isoform specificity on CDK6; format: binding; settings: dose-dependent treatment
Procedure: (§1) Activity-based protein profiling (ABPP) was performed as follows. CDK4 was diluted in PBS to 50 nM, then 50 μL was added to each well of a 96-well PCR plate. Ligands were dissolved fresh in DMSO to 5 μM, and 1 μL was added so each well contained a unique ligand at the indicated concentration. Wells were mixed and allowed to incubate 1 h at 23° C. Ligands were then chased with fresh Compound 301 with 1 μL of 5 μM added to each well (100 nM final), wells mixed and allowed to incubate 1 h at 23° C. Excess oxaziridine was quenched with N-acetyl methionine via addition of 1 μL of 10 mM DMSO stock (200 μM final), wells mixed and allowed to incubate 1 h at 23° C. A stock was prepared 1:5 of 12.5 μM DBCO-Cy3 in DMSO: 1.2% SDS/PBS. To each well was added 6 μL of this stock, the wells mixed and allowed to incubate overnight protected from light at 23° C. The next morning 30 μL of 4×Laemmli's buffer containing 10% BME was added to each well. The plate was sealed and brought to 95° C. for 6 min. Samples were loaded and separated on precast 4-20% TGX gels and scanned by ChemiDoc MP for measuring in-gel fluorescence. After that, the total protein level on the gel was assayed by silver staining according to the manufacturer's protocol and scanned by ChemiDoc MP.
(§2) The isoform specificity was tested with two closely-related congeners, CDK1 and CDK6.

CDK1 [2] = target: T1, CDK1; assay: Gel-based ABPP, isoform specificity on CDK1; format: binding; settings: dose-dependent treatment
Procedure: as §1, §2

T1 sequence (P06493 whole entry): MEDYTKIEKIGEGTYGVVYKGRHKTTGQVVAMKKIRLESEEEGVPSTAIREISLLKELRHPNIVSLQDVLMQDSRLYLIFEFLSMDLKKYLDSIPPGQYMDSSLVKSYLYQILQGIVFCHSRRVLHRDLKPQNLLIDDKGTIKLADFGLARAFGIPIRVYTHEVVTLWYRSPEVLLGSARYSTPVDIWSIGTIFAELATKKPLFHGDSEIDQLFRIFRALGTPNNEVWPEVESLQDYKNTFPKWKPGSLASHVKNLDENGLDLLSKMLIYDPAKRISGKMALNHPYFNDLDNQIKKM
Sequence of CDK6 (Q00534 whole entry, canonical isoform): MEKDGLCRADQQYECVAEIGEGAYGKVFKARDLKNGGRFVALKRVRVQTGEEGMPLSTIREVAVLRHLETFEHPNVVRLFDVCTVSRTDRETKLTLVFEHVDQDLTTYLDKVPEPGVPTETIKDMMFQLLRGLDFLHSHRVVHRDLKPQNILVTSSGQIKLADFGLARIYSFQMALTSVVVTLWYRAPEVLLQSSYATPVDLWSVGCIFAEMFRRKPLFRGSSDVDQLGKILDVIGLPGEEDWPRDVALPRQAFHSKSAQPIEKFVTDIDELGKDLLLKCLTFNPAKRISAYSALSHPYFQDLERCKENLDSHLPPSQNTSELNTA

SMILES: O=C(N1CC2COCC2C1)N1OC1c1ccccc1 (stereo not shown) [Compound 148]
- modifications on CDK1 (CDK1 [1]): No modifications
- signal from pRb antibodies (cellular CDK4 activity) (CDK4): marked decrease in signal
- labeling against CDK6 by gel analysis (CDK6): no dose-dependent labeling
- labeling against CDK1 by gel analysis (CDK1 [2]): no dose-dependent labeling
